Test results from US7759331B2, “Pyridine-containing macroheterococylic compounds as kinase inhibitors” (Janssen Pharmaceutica NV, priority 2006, dated 2010).

Tests used:
Experiment in all cases: Protein kinase selectivity panel
Format in all cases: biochemical
Settings in all cases: 1.0 μM compound, 10 μM ATP
Blk(m) = Blk(m) (Mus musculus, UniProt P16277)
How it was run: (§1)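 Single-point screen: compound 1.0 μM; ATP 10 μM; peptide/protein substrate matched to each kinase; reaction linear in time.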

MAPK2(h) = MAPK2(h) (Homo sapiens, UniProt P28482)
How it was run: as §1

Axl(h) = biological target: T1, Axl(h) (Homo sapiens, UniProt P30530)
T1 sequence (P30530 26-894): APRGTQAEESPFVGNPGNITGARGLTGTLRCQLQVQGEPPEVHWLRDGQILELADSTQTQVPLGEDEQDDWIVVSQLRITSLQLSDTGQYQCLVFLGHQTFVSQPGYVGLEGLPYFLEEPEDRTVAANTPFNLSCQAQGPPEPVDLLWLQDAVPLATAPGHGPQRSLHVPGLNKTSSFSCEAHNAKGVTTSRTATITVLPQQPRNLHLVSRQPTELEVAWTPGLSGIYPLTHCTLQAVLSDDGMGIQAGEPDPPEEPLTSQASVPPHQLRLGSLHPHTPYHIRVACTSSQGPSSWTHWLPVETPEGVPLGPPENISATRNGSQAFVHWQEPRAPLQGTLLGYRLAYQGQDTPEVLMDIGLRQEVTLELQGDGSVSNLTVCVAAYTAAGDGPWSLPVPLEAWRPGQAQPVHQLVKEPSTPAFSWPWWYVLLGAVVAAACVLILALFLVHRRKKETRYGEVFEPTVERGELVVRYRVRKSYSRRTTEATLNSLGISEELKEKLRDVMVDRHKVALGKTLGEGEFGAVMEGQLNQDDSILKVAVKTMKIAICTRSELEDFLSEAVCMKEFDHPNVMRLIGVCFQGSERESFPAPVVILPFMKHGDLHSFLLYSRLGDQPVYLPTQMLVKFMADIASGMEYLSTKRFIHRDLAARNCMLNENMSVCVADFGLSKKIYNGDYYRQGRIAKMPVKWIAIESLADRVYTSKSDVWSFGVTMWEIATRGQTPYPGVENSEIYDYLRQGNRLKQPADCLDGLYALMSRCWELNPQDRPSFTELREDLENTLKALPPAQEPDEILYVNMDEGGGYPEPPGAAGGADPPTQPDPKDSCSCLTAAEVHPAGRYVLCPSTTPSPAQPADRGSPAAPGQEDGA
How it was run: as §1

CHK2(h) = CHK2(h) (Homo sapiens, UniProt O96017)
How it was run: as §1

BTK(h) = BTK(h) (Homo sapiens, UniProt Q06187)
How it was run: as §1

MKK7β(h) = biological target: T2, MKK7β(h) (Homo sapiens, UniProt O14733)
T2 sequence (O14733 1-419): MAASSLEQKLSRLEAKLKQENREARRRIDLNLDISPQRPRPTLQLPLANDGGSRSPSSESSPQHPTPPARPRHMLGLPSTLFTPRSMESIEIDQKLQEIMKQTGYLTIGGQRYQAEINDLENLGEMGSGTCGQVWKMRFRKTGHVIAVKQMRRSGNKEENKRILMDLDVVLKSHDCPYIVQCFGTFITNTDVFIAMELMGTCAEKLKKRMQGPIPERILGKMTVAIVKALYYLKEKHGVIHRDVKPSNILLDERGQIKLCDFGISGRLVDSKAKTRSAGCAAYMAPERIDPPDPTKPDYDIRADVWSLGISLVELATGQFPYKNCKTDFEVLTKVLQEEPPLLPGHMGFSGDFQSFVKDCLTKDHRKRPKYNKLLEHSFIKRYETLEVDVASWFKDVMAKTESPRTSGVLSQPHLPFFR
How it was run: as §1

ROCK-II(r) = ROCK-II(r) (Rattus norvegicus, UniProt Q62868)
How it was run: as §1

Fyn(h) = Fyn(h) (Homo sapiens, UniProt P06241)
How it was run: as §1

PKCζ(h) = biological target: T3, PKCζ(h) (Homo sapiens, UniProt Q05513)
T3 sequence (Q05513 1-592): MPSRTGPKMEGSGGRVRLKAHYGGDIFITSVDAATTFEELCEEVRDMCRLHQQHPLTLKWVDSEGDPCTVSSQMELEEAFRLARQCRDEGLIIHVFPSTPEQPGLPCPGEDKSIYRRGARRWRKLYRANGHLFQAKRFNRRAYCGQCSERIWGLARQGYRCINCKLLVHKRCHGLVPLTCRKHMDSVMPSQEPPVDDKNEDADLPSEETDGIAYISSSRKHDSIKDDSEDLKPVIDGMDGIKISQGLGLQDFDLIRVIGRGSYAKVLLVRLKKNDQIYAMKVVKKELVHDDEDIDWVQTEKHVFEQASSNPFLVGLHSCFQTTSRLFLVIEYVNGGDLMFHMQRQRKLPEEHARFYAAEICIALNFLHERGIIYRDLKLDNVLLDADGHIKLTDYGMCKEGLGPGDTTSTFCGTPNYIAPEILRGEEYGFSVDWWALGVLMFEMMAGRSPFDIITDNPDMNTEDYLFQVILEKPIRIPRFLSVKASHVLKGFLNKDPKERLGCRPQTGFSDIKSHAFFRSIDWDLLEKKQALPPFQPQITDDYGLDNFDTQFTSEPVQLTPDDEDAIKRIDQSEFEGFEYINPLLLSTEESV
How it was run: as §1

JNK1α1(h) = JNK1α1(h) (Homo sapiens, UniProt P45983)
How it was run: as §1

IR(h) = IR(h) (Homo sapiens, UniProt P06213)
How it was run: as §1

CDK7/cyclinH/MAT1(h) = CDK7/cyclinH/MAT1(h) (Homo sapiens, UniProt P50613)
How it was run: as §1

PKBβ(h) = PKBβ(h) (Homo sapiens, UniProt P31751)
How it was run: as §1

Chain of BTK(h) (Q06187 whole entry): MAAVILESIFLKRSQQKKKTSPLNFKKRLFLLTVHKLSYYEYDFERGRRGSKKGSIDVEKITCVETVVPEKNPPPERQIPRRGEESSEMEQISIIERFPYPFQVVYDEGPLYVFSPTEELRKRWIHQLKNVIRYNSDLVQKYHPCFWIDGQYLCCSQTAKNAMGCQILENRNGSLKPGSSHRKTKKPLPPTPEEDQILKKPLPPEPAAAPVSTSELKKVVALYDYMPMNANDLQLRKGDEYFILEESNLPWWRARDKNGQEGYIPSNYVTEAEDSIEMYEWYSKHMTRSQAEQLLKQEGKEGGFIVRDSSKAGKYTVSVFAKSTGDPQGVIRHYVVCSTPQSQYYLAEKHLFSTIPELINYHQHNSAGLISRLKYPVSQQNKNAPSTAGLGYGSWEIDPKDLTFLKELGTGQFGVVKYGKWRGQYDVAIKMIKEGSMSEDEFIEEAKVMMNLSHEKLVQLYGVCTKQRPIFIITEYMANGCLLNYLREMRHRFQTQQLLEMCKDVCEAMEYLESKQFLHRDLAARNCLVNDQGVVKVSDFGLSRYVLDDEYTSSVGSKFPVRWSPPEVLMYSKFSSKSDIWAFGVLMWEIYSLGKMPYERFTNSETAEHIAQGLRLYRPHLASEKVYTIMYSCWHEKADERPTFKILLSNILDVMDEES
Chain of CDK7/cyclinH/MAT1(h) (P50613 whole entry): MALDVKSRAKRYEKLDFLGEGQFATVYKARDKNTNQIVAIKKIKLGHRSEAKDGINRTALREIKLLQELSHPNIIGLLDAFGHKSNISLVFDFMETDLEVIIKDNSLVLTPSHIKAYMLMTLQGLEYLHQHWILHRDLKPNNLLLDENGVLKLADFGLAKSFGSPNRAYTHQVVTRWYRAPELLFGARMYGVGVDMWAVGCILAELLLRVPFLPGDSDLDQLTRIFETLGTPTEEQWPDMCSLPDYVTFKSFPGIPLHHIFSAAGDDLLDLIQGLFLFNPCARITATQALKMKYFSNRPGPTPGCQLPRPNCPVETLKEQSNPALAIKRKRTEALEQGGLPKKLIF
Chain of CDK7/cyclinH/MAT1(h) (P51946 whole entry partner): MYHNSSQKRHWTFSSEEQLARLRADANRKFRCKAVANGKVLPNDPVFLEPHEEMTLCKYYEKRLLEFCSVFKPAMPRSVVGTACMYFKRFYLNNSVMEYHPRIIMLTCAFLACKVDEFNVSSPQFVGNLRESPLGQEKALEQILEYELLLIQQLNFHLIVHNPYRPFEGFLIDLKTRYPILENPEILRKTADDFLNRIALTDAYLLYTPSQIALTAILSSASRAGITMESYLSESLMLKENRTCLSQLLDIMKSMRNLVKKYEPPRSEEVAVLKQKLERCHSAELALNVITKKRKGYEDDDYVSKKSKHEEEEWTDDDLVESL
Chain of CDK7/cyclinH/MAT1(h) (P51948 whole entry partner): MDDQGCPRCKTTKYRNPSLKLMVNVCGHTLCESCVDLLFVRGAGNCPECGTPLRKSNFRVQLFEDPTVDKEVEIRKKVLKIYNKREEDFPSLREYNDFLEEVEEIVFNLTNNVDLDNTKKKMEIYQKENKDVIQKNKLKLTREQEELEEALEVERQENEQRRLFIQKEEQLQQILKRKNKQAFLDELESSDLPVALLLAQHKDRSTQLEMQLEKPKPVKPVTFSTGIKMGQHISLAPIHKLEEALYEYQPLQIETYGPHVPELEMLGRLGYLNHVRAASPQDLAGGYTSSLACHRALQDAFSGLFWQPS
Chain of JNK1α1(h) (P45983 1-384 isoform P45983-2): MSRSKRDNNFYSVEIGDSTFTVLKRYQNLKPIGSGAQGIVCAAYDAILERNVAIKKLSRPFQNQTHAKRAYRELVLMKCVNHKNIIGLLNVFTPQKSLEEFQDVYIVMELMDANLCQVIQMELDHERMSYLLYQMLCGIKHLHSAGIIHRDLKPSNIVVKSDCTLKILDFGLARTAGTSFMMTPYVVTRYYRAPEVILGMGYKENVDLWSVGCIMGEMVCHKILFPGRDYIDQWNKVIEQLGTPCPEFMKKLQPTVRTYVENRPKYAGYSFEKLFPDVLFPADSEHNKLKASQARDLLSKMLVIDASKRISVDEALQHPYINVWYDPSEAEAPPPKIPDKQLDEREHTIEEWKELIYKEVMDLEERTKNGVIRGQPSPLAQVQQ
Chain of IR(h) (P06213 28-1382): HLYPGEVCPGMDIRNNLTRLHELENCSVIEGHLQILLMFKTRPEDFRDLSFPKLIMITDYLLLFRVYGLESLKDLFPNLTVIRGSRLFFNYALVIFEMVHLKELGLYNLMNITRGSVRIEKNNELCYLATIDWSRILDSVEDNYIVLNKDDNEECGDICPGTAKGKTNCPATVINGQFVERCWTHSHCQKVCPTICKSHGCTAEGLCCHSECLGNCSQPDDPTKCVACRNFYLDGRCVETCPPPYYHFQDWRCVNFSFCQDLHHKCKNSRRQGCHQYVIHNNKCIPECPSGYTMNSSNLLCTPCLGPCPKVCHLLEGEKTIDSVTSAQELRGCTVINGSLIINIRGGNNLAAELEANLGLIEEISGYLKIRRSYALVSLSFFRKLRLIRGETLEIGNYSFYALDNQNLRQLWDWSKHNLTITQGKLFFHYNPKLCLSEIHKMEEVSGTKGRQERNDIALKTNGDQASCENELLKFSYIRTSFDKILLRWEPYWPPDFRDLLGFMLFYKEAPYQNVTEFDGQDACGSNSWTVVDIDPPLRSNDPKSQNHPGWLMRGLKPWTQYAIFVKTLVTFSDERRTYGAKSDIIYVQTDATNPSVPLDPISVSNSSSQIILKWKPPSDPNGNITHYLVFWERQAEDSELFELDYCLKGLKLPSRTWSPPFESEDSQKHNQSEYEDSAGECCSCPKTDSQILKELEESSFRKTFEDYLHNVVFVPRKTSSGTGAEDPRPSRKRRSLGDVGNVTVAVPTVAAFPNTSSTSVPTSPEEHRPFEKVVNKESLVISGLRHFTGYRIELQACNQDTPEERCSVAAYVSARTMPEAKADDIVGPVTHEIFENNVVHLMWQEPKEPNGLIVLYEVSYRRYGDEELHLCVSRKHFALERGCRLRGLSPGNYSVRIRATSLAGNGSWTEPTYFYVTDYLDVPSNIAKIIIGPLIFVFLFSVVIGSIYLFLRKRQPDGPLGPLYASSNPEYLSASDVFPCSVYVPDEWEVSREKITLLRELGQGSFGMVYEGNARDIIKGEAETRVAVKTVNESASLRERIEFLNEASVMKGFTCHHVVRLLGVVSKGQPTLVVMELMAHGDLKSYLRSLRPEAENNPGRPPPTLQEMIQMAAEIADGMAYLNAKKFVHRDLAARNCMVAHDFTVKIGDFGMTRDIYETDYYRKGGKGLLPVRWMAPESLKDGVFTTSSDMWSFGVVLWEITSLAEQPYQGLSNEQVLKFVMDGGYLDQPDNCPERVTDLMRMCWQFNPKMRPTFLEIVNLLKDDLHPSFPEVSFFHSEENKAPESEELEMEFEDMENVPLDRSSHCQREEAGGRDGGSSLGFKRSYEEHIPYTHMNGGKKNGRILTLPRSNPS
Chain of ROCK-II(r) (Q62868 whole entry): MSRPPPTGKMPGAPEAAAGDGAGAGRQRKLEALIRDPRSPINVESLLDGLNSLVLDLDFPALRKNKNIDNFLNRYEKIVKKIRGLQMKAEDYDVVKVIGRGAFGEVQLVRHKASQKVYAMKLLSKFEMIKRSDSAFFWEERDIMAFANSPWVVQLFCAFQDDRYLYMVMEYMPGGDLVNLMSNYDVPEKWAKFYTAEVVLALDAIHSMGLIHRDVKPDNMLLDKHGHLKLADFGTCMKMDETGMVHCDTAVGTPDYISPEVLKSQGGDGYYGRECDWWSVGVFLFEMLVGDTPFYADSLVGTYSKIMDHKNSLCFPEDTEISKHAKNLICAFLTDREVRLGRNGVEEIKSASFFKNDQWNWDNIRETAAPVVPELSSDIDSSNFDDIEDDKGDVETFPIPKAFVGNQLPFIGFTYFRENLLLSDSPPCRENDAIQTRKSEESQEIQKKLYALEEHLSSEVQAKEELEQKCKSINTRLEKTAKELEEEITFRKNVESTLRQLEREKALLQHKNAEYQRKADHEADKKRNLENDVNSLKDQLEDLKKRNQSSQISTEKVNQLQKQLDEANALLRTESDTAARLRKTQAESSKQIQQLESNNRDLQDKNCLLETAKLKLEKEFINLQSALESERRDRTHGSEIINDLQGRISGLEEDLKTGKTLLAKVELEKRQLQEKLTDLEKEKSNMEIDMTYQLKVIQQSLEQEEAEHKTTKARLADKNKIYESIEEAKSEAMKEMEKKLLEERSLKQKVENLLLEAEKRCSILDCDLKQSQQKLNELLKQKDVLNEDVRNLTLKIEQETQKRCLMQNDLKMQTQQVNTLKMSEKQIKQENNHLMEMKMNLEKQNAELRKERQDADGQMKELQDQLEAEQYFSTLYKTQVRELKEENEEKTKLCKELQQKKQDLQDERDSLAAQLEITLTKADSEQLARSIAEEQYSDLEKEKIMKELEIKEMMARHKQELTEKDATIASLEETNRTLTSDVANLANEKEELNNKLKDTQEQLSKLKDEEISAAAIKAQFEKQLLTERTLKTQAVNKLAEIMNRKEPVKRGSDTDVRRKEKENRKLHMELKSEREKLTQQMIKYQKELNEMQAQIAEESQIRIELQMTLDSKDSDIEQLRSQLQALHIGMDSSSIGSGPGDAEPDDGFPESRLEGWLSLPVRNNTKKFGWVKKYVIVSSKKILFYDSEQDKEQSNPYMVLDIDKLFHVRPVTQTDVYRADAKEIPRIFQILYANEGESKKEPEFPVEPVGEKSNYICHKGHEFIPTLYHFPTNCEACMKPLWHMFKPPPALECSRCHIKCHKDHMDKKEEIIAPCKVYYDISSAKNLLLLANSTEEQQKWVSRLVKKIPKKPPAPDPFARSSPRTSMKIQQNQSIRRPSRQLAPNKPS

Row | SMILES | Activity at Protein Kinase Assays (% of control), Blk(m) (Blk(m)) | Activity at Protein Kinase Assays (% of control), MAPK2(h) (MAPK2(h)) | Activity at Protein Kinase Assays (% of control), Axl(h) (Axl(h)) | Activity at Protein Kinase Assays (% of control), CHK2(h) (CHK2(h)) | Activity at Protein Kinase Assays (% of control), BTK(h) (BTK(h)) | Activity at Protein Kinase Assays (% of control), MKK7β(h) (MKK7β(h)) | Activity at Protein Kinase Assays (% of control), ROCK-II(r) (ROCK-II(r)) | Activity at Protein Kinase Assays (% of control), Fyn(h) (Fyn(h)) | Activity at Protein Kinase Assays (% of control), PKCζ(h) (PKCζ(h)) | Activity at Protein Kinase Assays (% of control), JNK1α1(h) (JNK1α1(h)) | Activity at Protein Kinase Assays (% of control), IR(h) (IR(h)) | Activity at Protein Kinase Assays (% of control), CDK7/cyclinH/MAT1(h) (CDK7/cyclinH/MAT1(h)) | Activity at Protein Kinase Assays (% of control), PKBβ(h) (PKBβ(h))
1 | CN(C)c1nc2ccc1CCCCn1cc(c3ccccc31)C1=C(C(=O)NC1=O)c1cn(c3ccccc13)CCC2 [Cpd 1, 31-(dimethylamino)-5,15,25,32-tetraazaheptacyclo[28.2.2.1^5,12.1^18,25.0^6,11.0^13,17.0^19,24]hexatriaconta-1(32),6,8,10,12(36),13(17),18(35),19,21,23,30,33-dodecaene-14,16-dione] | 109 % of control | 102 % of control | 97 % of control | 91 % of control | 105 % of control | 88 % of control | 101 % of control | 103 % of control | 98 % of control | 102 % of control | 91 % of control | 89 % of control | 86 % of control
2 | CN(C)c1cc2cc(n1)CCCn1cc(c3ccccc31)C1=C(C(=O)NC1=O)c1cn(c3ccccc13)CCC2 [Cpd 2, 20-(dimethylamino)-4,14,19,26-tetraazaheptacyclo[24.6.1.1^7,14.1^18,22.0^2,6.0^8,13.0^27,32]pentatriaconta-1(33),2(6),7(35),8,10,12,18(34),19,21,27,29,31-dodecaene-3,5-dione] | 70 % of control | 104 % of control | 104 % of control | 94 % of control | 106 % of control | 78 % of control | 92 % of control | 106 % of control | 105 % of control | 105 % of control | 102 % of control | 108 % of control | 118 % of control
3 | O=C1NC(=O)C2=C1c1cn(c3ccccc13)CCCc1cc(nc(N3CCCC3)c1)CCCn1cc2c2ccccc21 [Cpd 6, 20-pyrrolidin-1-yl-4,14,19,26-tetraazaheptacyclo[24.6.1.1^7,14.1^18,22.0^2,6.0^8,13.0^27,32]pentatriaconta-1(33),2(6),7(35),8,10,12,18(34),19,21,27,29,31-dodecaene-3,5-dione] | 74 % of control | 92 % of control | 106 % of control | 84 % of control | 106 % of control | 97 % of control | 83 % of control | 106 % of control | 99 % of control | 108 % of control | 110 % of control | 107 % of control | 104 % of control
4 | O=C1NC(=O)C2=C1c1cn(c3ccccc13)CCCc1ccc(c(N3CCCC3)n1)CCCn1cc2c2ccccc21 [Cpd 7, 31-pyrrolidin-1-yl-5,15,25,30-tetraazaheptacyclo[27.2.2.1^5,12.1^18,25.0^6,11.0^13,17.0^19,24]pentatriaconta-1(31),6,8,10,12(35),13(17),18(34),19,21,23,29,32-dodecaene-14,16-dione] | 91 % of control | 88 % of control | 100 % of control | 91 % of control | 104 % of control | 85 % of control | 91 % of control | 103 % of control | 116 % of control | 104 % of control | 87 % of control | 111 % of control | 102 % of control
